pEC50, pIC50: −log10 of the molar value.
Assays:
H9 [1] = experiment: Concentration required to inhibit uninfected H9 cell growth; type: functional, cell-based; details: Homo sapiens
[2] = Therapeutic index for inhibition of uninfected H9 cell growth to that of inhibition of HIV-1 replication in H9 lymphocyte cells; […]; type: cell-based; details: human
[3] = Therapeutic index for inhibition of uninfected H9 cell growth to that of inhibition of HIV-1 replication in H9 lymphocyte cells; Precipitated in the media; type: cell-based; details: human
H9 [4] = experiment: Concentration required to inhibit HIV-1 replication in H9 lymphocyte cells; type: functional, cell-based; details: Homo sapiens
[5] = Therapeutic index for inhibition of uninfected H9 cell growth to that of inhibition of HIV-1 replication in H9 lymphocyte cells.; type: cell-based; details: human, H9 lymphocyte cells (uninfected and HIV-1 infected); read-out: TI
[6] = Therapeutic index for inhibition of uninfected H9 cell growth to that of inhibition of HIV-1 replication in H9 lymphocyte cells;Did not dissolve; type: cell-based; details: human

Compound	pIC50 (H9 [1])	TI [2]	selectivity ratio [5]	other results
Cc1cc(O)nc2cc(N)ccc12	3.98	Not Active		
Cc1cc(=O)n(C(=O)OC(C)(C)C)c2c3c(ccc12)OC(C)(C)C=C3				TI [3]: Precipitated
Cc1c(O)nc2c3c(ccc2c1C)OC(C)(C)[C@H](OC(=O)C12CCC(C)(C(=O)O1)C2(C)C)[C@@H]3OC(=O)C12CCC(C)(C(=O)O1)C2(C)C (stereo partly specified)	4.38		9100	pEC50 (H9 [4]): 8.34
CC1(C)Oc2ccc3ccc(=O)oc3c2[C@@H](OC(=O)C23CCC(C)(C(=O)O2)C3(C)C)[C@H]1OC(=O)C12CCC(C)(C(=O)O1)C2(C)C (stereo partly specified)			137000	
Cc1cc(=O)n(C(=O)OC(C)(C)C)c2c3c(ccc12)OC(C)(C)[C@H](O)[C@@H]3O				TI [3]: Precipitated
Cc1cc(O)nc2c3c(ccc12)OC(C)(C)C=C3				TI [6]: Did not dissolve
Cc1cc(O)nc2c3c(ccc12)OC(C)(C)[C@H](OC(=O)C12CCC(C)(C(=O)O1)C2(C)C)[C@@H]3OC(=O)C12CCC(C)(C(=O)O1)C2(C)C (stereo partly specified)	4.55		119000	pEC50 (H9 [4]): 9.62
Cc1cc(O)nc2cc(O)ccc12	3.90	Not Active		
Cc1cc(=O)n(C(=O)OC(C)(C)C)c2c3c(ccc12)OC(C)(C)[C@H](OC(=O)C12CCC(C)(C(=O)O1)C2(C)C)[C@@H]3OC(=O)C12CCC(C)(C(=O)O1)C2(C)C (stereo partly specified)	< 3.80	Not Active		

— ChEMBL document CHEMBL1132864, “Anti-AIDS agents part 41: synthesis and anti-HIV activity of 3',4'-di-o-(-)-camphanoyl-(+)-cis-khellactone (DCK) lactam analogues” (Bioorg Med Chem Lett, 2000)
